Source: patent publication US6380192B1, “Triazine compounds and method of use therefor” (Alteon, Inc., priority 1996, dated 2002)
Where a name gives a salt, the structure may show the parent alone.

Key:
[1] = system: N-acetyl glycyl-lysine methyl ester; experiment: Inhibition of cross-linking of N-acetyl glycyl-lysine methyl ester in the presence of ribose (fluorescence); type: biochemical; details: 0.5 M sodium phosphate buffer pH 7.4, 37° C., 16-24 hours; read-out: IC50 inhibition of cross-linking of N-acetylglycyllysine methyl ester with ribose
Excerpt: The following method was used to evaluate the ability of the compounds of the present invention to inhibit the cross-linking of N-acetyl glycyl-lysine methyl ester in the presence of ribose.
N-acetylglycyllysine methyl ester (DP in formula below)
Ribose (R in formula below)
Test compounds (C in formula below)
0.5 M sodium phosphate buffer pH 7.4
N-acetylglycyllysine methyl ester in 0.5M sodium phosphate buffer, pH 7.4
Test compounds dissolved in the above buffer and the pH is adjusted to 7.4, if necessary
Reaction mixtures are prepared as follows:
and incubated at 37° C. for 16-24 hours. At the end of the incubation period reaction mixture is diluted with 3 ml distilled water and the fluorescence is read using an excitation wavelength of 350 nm and emission wavelength of […]. The inhibition of the cross-linking is calculated from the decrease in the fluorescence in the presence of the test compounds according to the formula:
Inhibition (%)=100×[DPRC fluorescence−RC fluorescence]/DPR fluorescence
The Inhibition by various test compounds (IC50) is as follows: […]

diabetic rats = details: cited from earlier work
kidney = details: in vivo; cited from earlier work
[2] = system: streptozotocin-diabetic rat; details: cited from earlier work
red blood cells = details: in vivo; cited from earlier work

IC50 [1] [mM]	Compound	other results
0.83	2-methyl-[6′-(3′,4′-diamino-5(4H)-one-1,2,4-triazinyl)]hydrazide	–
> 10	COc1cccc(C(=O)C=C2NN=C(N)N(N)C2=O)c1 [3,4-diamino-6-(3′-methoxyphenylcarbonylmethylene)-1,2,4-triazine-5(4H)-one]	–
1.6	CCCCc1nnc(N)n(N)c1=O [3,4-diamino-6-butyl-1,2,4-triazine-5(4H)-one]	–
> 1	Cl.NNc1nnc(Cc2ccc(O)cc2)c(=O)n1N [4-amino-3-hydrazino-6-(4′-hydroxybenzyl)-1,2,4-triazin-5(4H)-one hydrochloride]	melting point: 218 to 222 °C (dec.)
< 3	Cc1nnc(NN)n(N)c1=O [4-amino-3-hydrazino-6-methyl-1,2,4-triazin-5(4H)-one hydrochloride]	–
–	N=C(N)NN [aminoguanidine]	Aortic wall protein cross-linking (diabetic rats): diminishes aortic wall protein cross-linking; Immunoglobulin trapping in the kidney (kidney): reduction of immunoglobulin trapping in the kidney; Increased glomerular basement membrane thickness [2]: prevented; Diabetes-induced changes in the deformability of red blood cells (red blood cells): has been shown to prevent it in vivo
